Legend:
[1] = system: CA1 pyramidal neurons in hippocampal slices from rats subjected to Pilo-SE; experiment: Hippocampal LTP in slices from Pilo-SE rats, compound perfused in the bath (ex vivo); format: cell-based, rat; settings: slices 1-2 weeks post Pilo-SE
Procedure: (§1) In this experiment we used male Sprague-Dawley rats (ENVIGO, Netherlands). Pups were received at 14 day-old (postnatal day 14 (P14)) with their foster mother, and were maintained in groups of 10 in plastic cages (405 mm×255 mm×197 mm) with free access to food and water. All animal procedures are in accordance with the guidelines of the Animal Care and Use Committee of the University Claude Bernard Lyon 1.
(§2) All injected solutions were prepared in sterile saline (0.9% w/v). At weaning (postnatal day 20 (P20)), Sprague-Dawley male rat pups were first injected i.p. with lithium chloride (127 mg/Kg; Sigma-Aldrich), to decrease the dose of pilocarpine needed to trigger Status Epilepticus (SE). Scopolamine methylnitrate (1 mg/Kg; Sigma-Aldrich) was injected s.c. 18 h later, to alleviate peripheral cholinergic adverse side effects. Pilocarpine hydrochloride (25 mg/Kg; Sigma-Aldrich) was injected i.p. 30 min later, to induce SE. […] The rats were placed on a heated pad, under continuous observation, until they recovered from sedation. Following recovery, the rats were returned to the nursing mother until P23. Control rats only received saline injections. All rats were then housed in groups of 10 and weighed daily, during the 5 following days, to control for food intake, and then twice weekly until the end of experiment (three weeks post SE).
(§3) At P28-38, Sprague-Dawley rats were anesthetized with isoflurane, the forebrain was removed and placed in ice cold standard artificial cerebrospinal fluid (ACSF), consisting of (in mM): 124 NaCl, 5 KCl, 1.25 Na2HPO4, 2 MgSO4, 2 CaCl2), 26 NaHCO3, supplemented with 10 D-glucose, and bubbled with 95% O2 and 5% CO2. Hippocampal transverse slices were cut into 350 μm thick sections, using a vibratome (Leica VT1000S), and incubated in ACSF at room temperature for at least 1 h, before the transfer to the recording chamber. The ACSF used for perfusion was supplemented with picrotoxin (100 μM; Sigma-Aldrich), to block GABA-A receptors and therefore to facilitate the induction of NMDA receptors-dependent Long-Term Potentiation (LTP). CA1 pyramidal cells were visualized with a Zeiss Axioskop 2, equipped with a X40 objective, using infrared video microscopy and differential interference contrast optics. Whole-cell recordings from pyramidal neurons in the CA1 layer were obtained with patch electrodes, which were filled with a solution containing (in mM): 120 potassium gluconate, 20 KCl, 0.2 EGTA, 2 MgCl2, 10 HEPES, 4 Na2ATP, 0.3 Tris-GTP and 14 mM phosphocreatine (pH 7.3, adjusted with KOH). Drugs were applied in the bath of the hippocampal slices. Electrode resistances ranged from 3-5 MΩ. Series resistance was continually monitored, and experiments were discarded if it changed by >20%.
Capillary glass pipettes filled with ACSF and connected to an Iso-Flex stimulus isolation unit (A.M.P.I.) were placed in stratum radiatum, to evoke excitatory postsynaptic potentials (EPSPs) in CA1 pyramidal neurons. Cells were held at −70 mV to record EPSPs, and the stimulation strength was set to evoke EPSPs between 5-8 mV. LTP was induced by the theta burst pairing (TBP) protocol, which consisted of EPSPs paired with single back-propagating action potentials (b-APs), timed so that the b-AP (~15 ms delay) occurred at the peak of the EPSPs, as measured in the soma. A single burst contained five pairs delivered at 100 Hz and ten bursts were delivered at 5 Hz per sweep. Three sweeps were delivered at 10 s intervals for a total of 30 bursts (150 b-AP-EPSP pairs). […]

[2] = system: hippocampal LTP in rats subjected to Pilo-SE; experiment: Hippocampal LTP in slices from Pilo-SE rats treated in vivo (i.p. or per os); parameters: species or system rat; settings: 1 h after cessation of SE then daily
Procedure: as §1, §2, §3
Capillary glass pipettes filled with ACSF and connected to an Iso-Flex stimulus isolation unit (A.M.P.I.) were placed in stratum radiatum, to evoke excitatory postsynaptic potentials (EPSPs) in CA1 pyramidal neurons. Cells were held at −70 mV to record EPSPs, and the stimulation strength was set to evoke EPSPs between 5-8 mV. LTP was induced by the theta burst pairing (TBP) protocol, which consisted of EPSPs paired with single back-propagating action potentials (b-APs), timed so that the b-AP (~15 ms delay) occurred at the peak of the EPSPs, as measured in the soma. A single burst contained five pairs delivered at 100 Hz and ten bursts were delivered at 5 Hz per sweep. Three sweeps were delivered at 10 s intervals for a total of 30 bursts (150 b-AP-EPSP pairs). The b-APs were elicited by direct somatic current injection (1 ms, 1-2 nA). This induction protocol was always applied within 20 min of achieving whole-cell configuration, to avoid “wash-out” of LTP.

[3] = system: epileptic rats (post Pilo-SE); experiment: Morris water maze (MWM) spatial learning in epileptic rats; format: in vivo, rat; settings: epileptic rats injected during the first week post-SE, tested 5 weeks post-SE, versus saline
Procedure: All injected solutions were prepared in sterile saline (0.9% w/v). At weaning (postnatal day 20 (P20)), Sprague-Dawley male rat pups were first injected i.p. with lithium chloride (127 mg/Kg; Sigma-Aldrich), to decrease the dose of pilocarpine needed to trigger Status Epilepticus (SE). Scopolamine methylnitrate (1 mg/Kg; Sigma-Aldrich) was injected s.c. 18 h later, to alleviate peripheral cholinergic adverse side effects. Pilocarpine hydrochloride (25 mg/Kg; Sigma-Aldrich) was injected i.p. 30 min later, to induce SE. After 30 min of continuous behavioral SE, diazepam (Valium®, Roche) was injected i.p. at 10 mg/Kg, to promote survival and initiate cessation of behavioral seizures, that completely stopped after a second s.c. injection of diazepam, given 90 min later at the dose of 5 mg/Kg. The rats were placed on a heated pad, under continuous observation, until they recovered from sedation. Following recovery, the rats were returned to the nursing mother until P23. Control rats only received saline injections. […]
Spatial learning ability was measured at 5 weeks post-SE by the Morris water maze (MWM). […]
The statistical analyses were performed using SigmaPlot software version 12. […] For MWM test, data were analyzed by two-way repeated measures ANOVA followed by Fisher LSD post hoc tests to compare differences between groups at several time points.

[4] = Recovery of weight loss in rats after status epilepticus; format: in vivo, rat; settings: 10 mg/Kg i.p. every day for 7 days after Pilo-SE
Procedure: Rats were subjected to pilocarpine-induced status epilepticus at day 0) and were administered (10 mg/Kg, i.p) Synaptamide phosphonate (SynPn) every day for 7 days. The weight of animals was daily measured. Results are described in FIG. 20. Results are expressed as the percentage of weight of animals (10-15 animals/group) at day 0. Statistical differences between Controls/SE+NaCl (*: p<0.05, ***: p<0.001) and between SE+NaCl/SE+SynPn (#: p<0.05).

Structure (SMILES): CCC=CCC=CCC=CCC=CCC=CCC=CCCC(=O)NCCP(=O)(O)O [synaptamide phosphonate]
- LTP magnitude (EPSP amplitude, % of baseline) ([1]; bath application 100 nM): 132.2±5.01%
- LTP magnitude (EPSP amplitude, % of baseline) ([1]; bath application 400 nM): 159.9±10.7%
- LTP magnitude (EPSP amplitude, % of baseline) ([2]; 2 mg/kg i.p.): 183.07±9.02%
- LTP magnitude (EPSP amplitude, % of baseline) ([2]; 5 mg/kg i.p.): 162.4±11.9%
- LTP magnitude (EPSP amplitude, % of baseline) ([2]; 10 mg/kg i.p.): 162.78±12.23%
- LTP magnitude (EPSP amplitude, % of baseline) ([2]; 10 mg/kg per os): 110.7±4.7%
- LTP magnitude (EPSP amplitude, % of baseline) ([2]; 30 mg/kg per os): 146.16±10%
- LTP magnitude (EPSP amplitude, % of baseline) ([2]; 100 mg/kg per os): 162.6±9.2%
- spatial learning in MWM (latency to find the platform) [3]: increased average latency to find the platform
- recovery of weight loss after SE [4]: facilitates the recovery of weight loss

From US20260234173A1, “STRUCTURED MOLECULAR VECTORS FOR ANTI-INFLAMMATORY COMPOUNDS AND USES THEREOF” (Universite Claude Bernard Lyon 1, priority 2019, published 2026)
